Measurements published in BigSolDB 2.1.

NC[C@H]1O[C@H](O[C@H]2[C@H](O)[C@@H](O[C@H]3O[C@H](CO)[C@@H](O)[C@H](N)[C@H]3O)[C@H](N)C[C@@H]2N)[C@H](N)C[C@@H]1O
solubility (mole fraction)
Settings	283.15 K	288.15 K	293.15 K	294.15 K	298.15 K	303.15 K	308.15 K	313.15 K	318.15 K
in DMF	–	–	0.000144	–	0.000181	0.000249	0.000394	0.000663	0.000942
in DMSO	–	–	–	0.0124	0.014	0.018	0.0236	0.0282	0.0351
in ethanol	0.000436	0.000556	0.000708	–	0.00114	0.00191	0.00243	–	–
in methanol	–	0.000129	0.000133	–	0.000189	0.000284	0.000433	0.000635	–
